In experiment [1] the test system is XBP1(u)-luciferase splicing reporter in HepG2 hepatoma cells. As to the kind of experiment: HepG2 XBP1 reporter assay (XBP1(u)-Luc). The format is cell-based. The conditions noted are these: Homo sapiens, 6 h, six hours after addition of compound. In general terms: In a reporter assay the amount or activity of a reporter protein is the signal.
Experiment [2] deals with NCI-H929 (Multiple myeloma cells). The experiment in a line: Cell viability (ATPLite) in NCI-H929. It counts as cell-based. The conditions noted are these: Homo sapiens, 96 hours. As for the experimental part: Cells were removed from liquid nitrogen storage, thawed and expanded in appropriate growth media. Once expanded, cells were seeded in 384-well tissue culture treated plates at 500 cells per well. After 24 hours, cells were treated for either 0 hours or treated for 96 hours with a testing compound (at the concentrations of 100 nM and 2 uM). At the end of either 0 hours or 96 hours, cell status was analyzed using ATPLite (Perkin Elmer) to assess the biological response of cells to the testing compound.
On the technique in general: In ATP-based viability assays light output follows the ATP content of the culture.

Our source for the IC50 values is patent US11440907B1 (Merck Patent GmbH, priority 2018, dated 2022).

As for `Cc1cc(N2CCCOC[C@H]2c2ccc(OCS(C)(=O)=O)cc2Cl)nc(N)n1` [D-2], the half-inhibitory concentration (IC50) in experiment [1] was less than 600 nM; in experiment [2], less than 1000 nM.
Regarding `Cc1cc(N2CCCOC[C@H]2c2cc(N3CC[C@H](O)C3)ccc2Cl)nc(N)n1` [D-63], the results for the IC50 in experiment [1] and in experiment [2] were less than 600 nM and less than 1000 nM, respectively.
Regarding `Cc1cc(N2CCCOC[C@@H]2c2ncc(CS(C)(=O)=O)cc2Cl)nc(N)n1` [D-81], the values for the half-maximal inhibitory concentration (IC50) in experiment [1] and in experiment [2] were less than 600 nM and less than 1000 nM, respectively.
On the same counts, the results for `CCOC(=O)[C@]1(C)CNc2cc(Cl)c([C@H]3COCCCN3c3cc(C)nc(N)n3)cc2O1` [D-36] are less than 600 nM and less than 1000 nM.
On the same counts, the results for `Cc1cc(N2CCCOC[C@H]2c2cc(N)c(C(F)(F)F)cc2Cl)nc(N)n1` [D-145] are no less than 5000 nM and no less than 25000 nM.
Taken in the same sequence, the figures for `CCOC(=O)OCc1cc(Cl)c(C2COCCCN2c2cc(C)nc(N)n2)cc1OCC` [D-42] were 600 to 2000 nM and 1000 to 10000 nM.
Consider `Cc1cc(N2CCCOCC2c2cc(O)c(OC(F)F)cc2Cl)nc(N)n1` [D-50], for which the IC50 in experiment [1] was less than 600 nM; in experiment [2], less than 1000 nM.
On the same counts, the results for `COc1cc(C2COCCCN2c2cc(C)nc(N)n2)c(Cl)cc1N1CCCC1` [D-17] are 600 to 2000 nM and 1000 to 10000 nM.
On the same counts, the results for `CNC(=O)[C@]1(C)CNc2cc(Cl)c([C@H]3COCCCN3c3cc(C)nc(N)n3)cc2O1` [D-116] are less than 600 nM and less than 1000 nM.
On the same counts, the results for `COc1ccc(C2COCCCN2c2cc(C)nc(N)n2)c(Cl)c1` [D-51] are less than 600 nM and less than 1000 nM.
Turning to `Cc1cc(N2CCCOCC2c2ccc(O)cc2C(F)(F)F)nc(N)n1` [D-111], the results for the IC50 in experiment [1] and in experiment [2] were less than 600 nM and less than 1000 nM, respectively.
Taken in the same sequence, the figures for `Cc1cc(N2CCCOC[C@H]2c2ccc(NC(=O)C(F)F)cc2Cl)nc(N)n1` [D-142] were no less than 5000 nM and less than 1000 nM.
On the same counts, the results for `Cc1cc(N2CCCOC[C@H]2c2cc3c(cc2Cl)N(C)CC3)nc(N)n1` [D-144] are no less than 5000 nM and no less than 25000 nM.
On the same counts, the results for `Cc1cc(N2CCCOC[C@H]2c2ccc(NC(=O)CCO)cc2Cl)nc(N)n1` [D-7] are 600 to 2000 nM and less than 1000 nM.
Consider `Cc1cc(N2CCCOCC2c2ncc(CS(C)(=O)=O)cc2Cl)nc(N)n1` [D-40], for which the IC50 in experiment [1] is less than 600 nM; in experiment [2] it was less than 1000 nM.
On the same counts, the results for `Cc1cc(N2CCCOCC2c2cc(O)c(CS(C)(=O)=O)cc2Cl)nc(N)n1` [D-65] are less than 600 nM and less than 1000 nM.
On the same counts, the results for `CCOC(=O)Cc1cc(C2COCCCN2c2cc(C)nc(C)n2)c(Cl)cc1C#N` [D-35] are 2000 to 5000 nM and 10000 to 25000 nM.
Taken in the same sequence, the figures for `COc1cc(N2CCCOCC2c2cc(C)nc(N)n2)c(Cl)cc1OCC(=O)Nc1ccccc1` [D-39] were 600 to 2000 nM and 1000 to 10000 nM.
Turning to `CCc1cc(N2CCCOC[C@@H]2c2cc(O)c(OC)cc2Cl)nc(N)n1` [D-104], the values for the IC50 in experiment [1] and in experiment [2] were less than 600 nM and less than 1000 nM, respectively.
On the same counts, the results for `Cc1cc(N2CCCOC[C@@H]2c2ccc(OCS(C)(=O)=O)cc2Cl)nc(N)n1` [D-1] are 600 to 2000 nM and no less than 25000 nM.
Taken in the same sequence, the figures for `Cc1cc(N2CCCOC[C@@H]2c2ccc(NC(=O)C(F)F)cc2Cl)nc(N)n1` [D-8] were 600 to 2000 nM and no less than 25000 nM.
On the same counts, the results for `Cc1cc(N2CCCOCC2c2ccc(CS(C)(=O)=O)cc2Cl)nc(N)n1` [D-55] are less than 600 nM and less than 1000 nM.
`Cc1cc(N2CCCOCC2c2cc(O)c(C(=O)O)cc2Cl)nc(N)n1` [D-23]: the IC50 was less than 600 nM in experiment [1] and no less than 25000 nM in experiment [2].
As for `Cc1cc(N2CCCOC[C@@H]2c2cc(O)c(C)cc2Cl)nc(N)n1` [D-20], the IC50 in experiment [1] was less than 600 nM; in experiment [2], less than 1000 nM.
Taken in the same sequence, the figures for `Cc1cc(N2CCCOC[C@H]2c2ccc(NC(=O)C3(F)CCOC3)cc2Cl)nc(N)n1` (stereo partly drawn) [D-58] were less than 600 nM and less than 1000 nM.
On the same counts, the results for `Cc1cc(N2CCCOC[C@H]2c2cc3c(cc2Cl)NCCC3)nc(N)n1` [D-143] are no less than 5000 nM and no less than 25000 nM.
As for `Cc1cc(N2CCCOC[C@@H]2c2ccc(N)cc2Cl)nc(N)n1` [D-30], the IC50 in experiment [1] is less than 600 nM; in experiment [2], less than 1000 nM.
On the same counts, the results for `CCc1cc(N2CCCOCC2c2cc(O)c(OC)cc2Cl)nc(N)n1` [D-71] are less than 600 nM and less than 1000 nM.
On the same counts, the results for `Cc1cc(N2CCCOC[C@@H]2c2ccc(CS(C)(=O)=O)cc2OC(F)F)nc(N)n1` [D-22] are less than 600 nM and less than 1000 nM.
On the same counts, the results for `Cc1cc(N2CCCOC[C@@H]2c2cc3c(cc2Cl)NCCC3)nc(N)n1` [D-9] are less than 600 nM and less than 1000 nM.
On to `CCc1cc(N2CCCOC[C@@H]2c2ccc(CS(C)(=O)=O)cc2Cl)nc(N)n1` [D-59], for which the results for the IC50 in experiment [1] and in experiment [2] were less than 600 nM and less than 1000 nM, respectively.
On the same counts, the results for `Cc1cc(N2CCCOC[C@@H]2c2cc(N)c(OC(F)(F)F)cc2Cl)nc(N)n1` [D-45] are less than 600 nM and less than 1000 nM.
`Cc1cc(N2CCCOCC2c2ccc(CS(C)(=O)=O)nc2OC(F)F)nc(N)n1` [D-54]: the IC50 was less than 600 nM in experiment [1] and 1000 to 10000 nM in experiment [2].
Turning to `CCC(=O)Nc1cc(Cl)c(C2COCCCN2c2cc(C)nc(N)n2)cc1C` [D-12], the results for the IC50 in experiment [1] and in experiment [2] were 600 to 2000 nM and 1000 to 10000 nM, respectively.
Taken in the same sequence, the figures for `Cc1cc(N2CCCOC[C@@H]2c2cc(N3CC[C@H](O)C3)ccc2Cl)nc(N)n1` [D-64] were 600 to 2000 nM and 1000 to 10000 nM.
On the same counts, the results for `CCOC(=O)[C@@]1(C)CNc2cc(Cl)c([C@@H]3COCCCN3c3cc(C)nc(N)n3)cc2O1` [D-157] are no less than 5000 nM and no less than 25000 nM.
On the same counts, the results for `Cc1cc(N2CCCOC[C@@H]2c2cc(O)c(C(=O)N(C)C)cc2Cl)nc(N)n1` [D-117] are less than 600 nM and less than 1000 nM.
As to `Cc1cc(N2CCCOC[C@H]2c2cc3c(cc2Cl)OCC(C)(C)CO3)nc(N)n1` [D-154], the IC50 in experiment [1] is no less than 5000 nM; in experiment [2], no less than 25000 nM.
Taken in the same sequence, the figures for `Cc1cc(N2CCCOCC2c2cc(C)c(N3CCC(C)(O)CC3)cc2Cl)nc(N)n1` [D-13] were 600 to 2000 nM and no less than 25000 nM.
Taken in the same sequence, the figures for `Cc1cc(N2CCCOC[C@H]2c2ccc(C3CCNCC3)cc2Cl)nc(N)n1` [D-68] were less than 600 nM and less than 1000 nM.
On the same counts, the results for `COc1cc(F)c(F)cc1[C@H]1COCCCN1c1cc(C)nc(N)n1` [D-4] are less than 600 nM and no less than 25000 nM.
For `Cc1cc(N2CCCOCC2c2cnc(CS(C)(=O)=O)cc2Cl)nc(N)n1` [D-49], the IC50 is less than 600 nM in experiment [1] and less than 1000 nM in experiment [2].
On the same counts, the results for `Cc1cc(N2CCCOC[C@@H]2c2cc(O)c(CS(C)(=O)=O)cc2Cl)nc(N)n1` [D-86] are less than 600 nM and less than 1000 nM.
Taken in the same sequence, the figures for `Cc1cc(N2CCCOCC2c2cc(OC(F)F)c(Cl)cc2Cl)nc(N)n1` [D-11] were 2000 to 5000 nM and 10000 to 25000 nM.
On the same counts, the results for `Cc1cc(N2CCCOC[C@H]2c2cc(O)c(OC(F)F)cc2Cl)nc(N)n1` [D-56] are no less than 5000 nM and 10000 to 25000 nM.
For the compound `Cc1cc(N2CCCOCC2c2ncc(CS(C)(=O)=O)cc2F)nc(N)n1` [D-43], the values for the IC50 in experiment [1] and in experiment [2] were 600 to 2000 nM and 1000 to 10000 nM, respectively.
On the same counts, the results for `Cc1cc(N2CCCOCC2c2ccc(C3CCNCC3)cc2Cl)nc(N)n1` [D-61] are less than 600 nM and 1000 to 10000 nM.
Taken in the same sequence, the figures for `COc1ccc([C@H]2COCCCN2c2cc(C)nc(N)n2)c(Cl)c1` [D-80] were less than 600 nM and less than 1000 nM.
With `CNc1cc(Cl)c([C@@H]2COCCCN2c2cc(C)nc(N)n2)cc1C` [D-25], the figures for the IC50 in experiment [1] and in experiment [2] were less than 600 nM and no less than 25000 nM, respectively.
Taken in the same sequence, the figures for `Cc1cc(N2CCCOCC2c2cc(CN)c(C)cc2Cl)nc(N)n1` [D-46] were less than 600 nM and less than 1000 nM.
Taken in the same sequence, the figures for `C#CCOc1cc(Cl)c(C2COCCCN2c2cc(C)nc(N)n2)cc1OC` [D-60] were less than 600 nM and 1000 to 10000 nM.
Taken in the same sequence, the figures for `Cc1cc(N2CCCOCC2c2ccc(CS(C)(=O)=O)[nH]c2=O)nc(N)n1` [D-146] were no less than 5000 nM and no less than 25000 nM.
As for `CCc1cc(N2CCCOCC2c2ccc(CS(C)(=O)=O)cc2Cl)nc(N)n1` [D-52], the IC50 in experiment [1] is less than 600 nM; in experiment [2], less than 1000 nM.
On the same counts, the results for `CCOc1cc([C@H]2COCCCN2c2cc(C)nc(N)n2)c(Cl)cc1OC` [D-34] are less than 600 nM and less than 1000 nM.
For the compound `COc1cc([C@H]2COCCCN2c2cc(C)nc(N)n2)c(Cl)cc1OCC#N` [D-38], the results for the IC50 in experiment [1] and in experiment [2] were less than 600 nM and less than 1000 nM, respectively.
On the same counts, the results for `Cc1cc(N2CCCOC[C@H]2c2ccc(S(=O)(=O)C3CCC3)cc2Cl)nc(N)n1` [D-141] are no less than 5000 nM and 1000 to 10000 nM.
Taken in the same sequence, the figures for `Cc1cc(N2CCCOC[C@@H]2c2cc(O)c(OC(F)(F)F)cc2Cl)nc(N)n1` [D-119] were less than 600 nM and less than 1000 nM.
Taken in the same sequence, the figures for `Cc1cc(N2CCCOC[C@@H]2c2cc(N)c(C(F)(F)F)cc2Cl)nc(N)n1` [D-10] were less than 600 nM and less than 1000 nM.
Consider `COc1cc(C2COCCCN2c2cc(C)nc(N)n2)c(Cl)cc1OCC(=O)N1CCCCC1` [D-24], for which the IC50 in experiment [1] was less than 600 nM; in experiment [2] it was no less than 25000 nM.
Turning to `Cc1cc(N2CCCOC[C@@H]2c2cc3c(cc2Cl)OCC(C)(C)CO3)nc(N)n1` [D-31], the results for the IC50 in experiment [1] and in experiment [2] were less than 600 nM and less than 1000 nM, respectively.
On the same counts, the results for `CCOc1cc(C2COCCCN2c2cc(C)nc(N)n2)c(Cl)cc1O` [D-21] are less than 600 nM and 1000 to 10000 nM.

In general, IC50 refers to the midpoint of a concentration-inhibition curve. The low end stands for higher potency, the high end for lower potency.
